According to ChEMBL document CHEMBL5614387, “Discovery of 2,4,6-trisubstituted pyrimidine derivatives as novel potent HIV-1 NNRTIs by exploiting the tolerant region II of the NNIBP” (Eur J Med Chem, 2024):

Legend:
[1] = test system: Human immunodeficiency virus 1; test: Antiviral activity against wild-type HIV-1 IIIB infected in human MT4 cells assessed as protection against virus-induced cytopathic effect by MTT assay; format: functional, organism-based; settings: Human immunodeficiency virus 1, IIIB
[2] = Cytotoxicity against human MT4 cells assessed as reduction in cell viability by MTT assay; format: toxicity, cell-based
[3] = Selectivity index, ratio of CC50 for human MT4 cells to EC50 for wild-type HIV-1 IIIB infected in human MT4 cells; format: toxicity, cell-based; settings: read-out: Ratio CC50/EC50
[4] = test system: Human immunodeficiency virus 1; test: Antiviral activity against HIV-1 harboring RT L100I mutant infected in human MT4 cells assessed as protection against virus-induced cytopathic effect by MTT assay; format: functional, organism-based; settings: Human immunodeficiency virus 1, MT4
[5] = test system: Human immunodeficiency virus 1; test: Antiviral activity against HIV-1 harboring RT K103N mutant infected in human MT4 cells assessed as protection against virus-induced cytopathic effect by MTT assay; format: functional, organism-based; settings: Human immunodeficiency virus 1, MT4
[6] = test system: Human immunodeficiency virus 1; test: Antiviral activity against HIV-1 harboring RT Y181C mutant infected in human MT4 cells assessed as protection against virus-induced cytopathic effect by MTT assay; format: functional, organism-based; settings: Human immunodeficiency virus 1, MT4
[7] = test system: Human immunodeficiency virus 1; test: Antiviral activity against HIV-1 harboring RT Y188L mutant infected in human MT4 cells assessed as protection against virus-induced cytopathic effect by MTT assay; format: functional, organism-based; settings: Human immunodeficiency virus 1, MT4
[8] = test system: Human immunodeficiency virus 1; test: Antiviral activity against HIV-1 harboring RT E138K mutant infected in human MT4 cells assessed as protection against virus-induced cytopathic effect by MTT assay; format: functional, organism-based; settings: Human immunodeficiency virus 1, MT4
[9] = test system: Human immunodeficiency virus 1; test: Antiviral activity against HIV-1 harboring RT F227L/V106A mutant infected in human MT4 cells assessed as protection against virus-induced cytopathic effect by MTT assay; format: functional, organism-based; settings: Human immunodeficiency virus 1, MT4
[10] = test system: Human immunodeficiency virus 1; test: Antiviral activity against HIV-1 harboring RT RES056 mutant infected in human MT4 cells assessed as protection against virus-induced cytopathic effect by MTT assay; format: functional, organism-based; settings: Human immunodeficiency virus 1, MT4
[11] = target: Human immunodeficiency virus type 1 reverse transcriptase (Human immunodeficiency virus 1, UniProt Q72547); test: Inhibition of wild-type HIV-1 reverse transcriptase incubated for 1 hr in presence of biotin-dUTP by ELISA

Compound | EC50 [1] [nM] | CC50 [2] [nM] | selectivity ratio [3] | EC50 [4] [nM] | EC50 [5] [nM] | EC50 [6] [nM] | EC50 [7] [nM] | EC50 [8] [nM] | EC50 [9] [nM] | EC50 [10] [nM] | IC50 [11] [nM]
Cc1cc(C#N)cc(C)c1Oc1cc(-c2ccoc2)nc(NC2CCN(Cc3ccc(S(N)(=O)=O)cc3)CC2)n1 | 9.36 | 29500 | 3150 | – | – | – | – | – | – | – | –
Cc1cc(C#N)cc(C)c1Oc1cc(-c2cccnc2)nc(NC2CCN(Cc3ccc(S(C)(=O)=O)cc3)CC2)n1 | 4.12 | 20600 | 5000 | 58.5 | 9.01 | 21.9 | 36.6 | 26.1 | 147 | 799 | 607
Cc1cc(C#N)cc(C)c1Oc1cc(-c2cccnc2)nc(NC2CCN(Cc3ccc(S(N)(=O)=O)cc3)CC2)n1 | 4.04 | 18200 | 4500 | 31.2 | 13.1 | 26 | 36.5 | 21.1 | 105 | 494 | 461
Cc1cc(C#N)cc(C)c1Oc1cc(-c2ccco2)nc(NC2CCN(Cc3ccc(C(N)=O)cc3)CC2)n1 | 15.5 | 24000 | 1550 | – | – | – | – | – | – | – | –
Cc1cc(C#N)cc(C)c1Oc1cc(-c2cncnc2)nc(NC2CCN(Cc3ccc(C(N)=O)cc3)CC2)n1 | 4.11 | 41600 | 10100 | 76.8 | 10.2 | 24.6 | 35.3 | 29 | 279 | 1060 | 601
Cc1cc(C#N)cc(C)c1Oc1cc(-c2cncnc2)nc(NC2CCN(Cc3ccc(S(C)(=O)=O)cc3)CC2)n1 | 6.72 | 108000 | 16100 | – | – | – | – | – | – | – | –
Cc1cc(C#N)cc(C)c1Oc1cc(-c2cncnc2)nc(NC2CCN(Cc3ccc(S(N)(=O)=O)cc3)CC2)n1 | 4.29 | 109000 | 25400 | 39.8 | 13 | 26 | 55 | 34.5 | 63.4 | 916 | 733
Cc1cc(C#N)cc(C)c1Oc1cc(-c2cccs2)nc(NC2CCN(Cc3ccc(C(N)=O)cc3)CC2)n1 | 4.48 | 19300 | 4310 | 20.2 | 6.68 | 30.5 | 44.4 | 36.1 | 63.4 | 399 | 299
Cc1cc(C#N)cc(C)c1Oc1cc(-c2ccccc2)nc(NC2CCN(Cc3ccc(C(N)=O)cc3)CC2)n1 | 6.23 | 23100 | 3710 | – | – | – | – | – | – | – | –
Cc1cc(C#N)cc(C)c1Oc1cc(-c2cccs2)nc(NC2CCN(Cc3ccc(S(C)(=O)=O)cc3)CC2)n1 | 5.53 | 16600 | 3000 | – | – | – | – | – | – | – | –
Cc1cc(C#N)cc(C)c1Oc1cc(-c2ccccc2)nc(NC2CCN(Cc3ccc(S(C)(=O)=O)cc3)CC2)n1 | 4.68 | 12500 | 2670 | 11.4 | 6.82 | 27.7 | 38 | 32.5 | 26 | 229 | 231
Cc1cc(C#N)cc(C)c1Oc1cc(-c2ccco2)nc(NC2CCN(Cc3ccc(S(C)(=O)=O)cc3)CC2)n1 | 5.68 | 20700 | 3640 | – | – | – | – | – | – | – | –
Cc1cc(C#N)cc(C)c1Oc1cc(-c2ccccc2)nc(NC2CCN(Cc3ccc(S(N)(=O)=O)cc3)CC2)n1 | 6.01 | 18000 | 3000 | – | – | – | – | – | – | – | –
Cc1cc(C#N)cc(C)c1Oc1cc(-c2ccsc2)nc(NC2CCN(Cc3ccc(C(N)=O)cc3)CC2)n1 | 5.06 | 23700 | 4680 | – | – | – | – | – | – | – | –
O=C1Nc2ccc(Cl)cc2[C@@](C#CC2CC2)(C(F)(F)F)O1 [EFAVIRENZ] | 3.67 | > 6340 | – | 28.9 | – | – | 396 | 8.82 | 261 | – | –
Cc1cc(C#N)cc(C)c1Oc1cc(-c2ccoc2)nc(NC2CCN(Cc3ccc(S(C)(=O)=O)cc3)CC2)n1 | 5.56 | 22600 | 4060 | – | – | – | – | – | – | – | –
Cc1cc(C#N)cc(C)c1Oc1cc(-c2cccs2)nc(NC2CCN(Cc3ccc(S(N)(=O)=O)cc3)CC2)n1 | 10.6 | 24600 | 2320 | – | – | – | – | – | – | – | –
Cc1cc(C#N)cc(C)c1Oc1cc(-c2ccoc2)nc(NC2CCN(Cc3ccc(C(N)=O)cc3)CC2)n1 | 5.49 | 19800 | 3610 | – | – | – | – | – | – | – | –
Cc1cc(C#N)cc(C)c1Oc1cc(-c2ccncc2)nc(NC2CCN(Cc3ccc(S(N)(=O)=O)cc3)CC2)n1 | 3.62 | 18400 | 5080 | 99.7 | 10.6 | 43.4 | 58.6 | 14.8 | 72.6 | 1210 | 507
Cc1cc(C#N)cc(C)c1Oc1cc(-c2ccncc2)nc(NC2CCN(Cc3ccc(C(N)=O)cc3)CC2)n1 | 7.39 | 21200 | 2870 | – | – | – | – | – | – | – | –
Cc1cc(C#N)cc(C)c1Oc1cc(-c2cccnc2)nc(NC2CCN(Cc3ccc(C(N)=O)cc3)CC2)n1 | 3.61 | 17200 | 4760 | 35.6 | 11.2 | 15.3 | 37.6 | 9.6 | 106 | 1420 | 428
Cc1cc(C#N)cc(C)c1Oc1cc(-c2ccco2)nc(NC2CCN(Cc3ccc(S(N)(=O)=O)cc3)CC2)n1 | 7.85 | 22800 | 2900 | – | – | – | – | – | – | – | –
Cc1cc(C#N)cc(C)c1Oc1cc(-c2ccsc2)nc(NC2CCN(Cc3ccc(S(C)(=O)=O)cc3)CC2)n1 | 167 | > 219000 | > 1310 | – | – | – | – | – | – | – | –
Cc1cc(C#N)cc(C)c1Oc1nc(Nc2ccc(C#N)cc2)nc(N)c1Br [ETRAVIRINE] | – | > 4590 | – | – | – | – | 30.5 | 14.9 | – | 32.3 | –
Cc1cc(C#N)cc(C)c1Oc1cc(-c2ccsc2)nc(NC2CCN(Cc3ccc(S(N)(=O)=O)cc3)CC2)n1 | 4.45 | 14800 | 3330 | 9.83 | 4.61 | 37.1 | 46.4 | 42.4 | 61.6 | 311 | 236
Cc1cc(C#N)cc(C)c1Oc1cc(-c2ccncc2)nc(NC2CCN(Cc3ccc(S(C)(=O)=O)cc3)CC2)n1 | 4.07 | 26300 | 6460 | 58.3 | 10.1 | 50.9 | 61.5 | 17.8 | 107 | 2350 | 520
Cc1ccnc2c1NC(=O)c1cccnc1N2C1CC1 [NEVIRAPINE] | – | > 15000 | > 73 | 3130 | 8250 | 9210 | > 15000 | 363 | > 15000 | > 15000 | –
